# Tests used:
# [1] = tested on: ZEAMX (Corn, Field); experiment: Postemergence herbicidal evaluation; type: in vivo, Zea mays; conditions: postemergence
# Method in brief: (§1)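 Scores (0–9) reflect plant stand, vigor, malformation, size, chlorosis and general appearance relative to control, read 4 to 5 weeks after treatment and averaged where tests were repeated. Application: about 0.0156–0.500 kg/ha sprayed at 40 psi onto two-week seedlings.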
# [2] = tested on: GALAP (Galium); experiment: Preemergence herbicidal evaluation; type: in vivo, Galium aparine; conditions: rated 4-5 weeks after treatment, rating scale 0-9
# Method in brief: (§2)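 Scores use a 0–9 visual scale covering stand, vigor, malformation, size and chlorosis relative to controls, rated four to five weeks after treatment. Before emergence, soil-planted seeds were sprayed with compound in aqueous acetone at roughly 0.0156–0.500 kg/ha and held in the greenhouse.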
# [3] = tested on: CASOB (Sicklepod); experiment: Preemergence herbicidal evaluation; type: in vivo, Cassia obtusifolia; conditions: rated 4-5 weeks after treatment, rating scale 0-9
# Method in brief: as §2
# [4] = tested on: SAGPY (Arrowhead (Pygmaea)); experiment: Preemergence weed control under flooded paddy conditions; type: in vivo, Sagittaria pygmaea; conditions: rated 3-4 weeks after treatment
# Method in brief: (§3)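 Seeds or propagules sown in silt loam kept flooded 1.5-3 cm; compounds in 50/50 acetone/water pipetted into flood water at about 0.0313 to 0.500 kg/ha. Greenhouse; visual 0-9 rating versus untreated control 3-4 weeks after treatment.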
# [5] = tested on: CYPSE (Flatsedge); experiment: as above; type: in vivo, Cyperus serotinus; conditions: rated 3-4 weeks after treatment
# Method in brief: as §3
# [6] = tested on: AMBEL (Ragweed, Common); experiment: Postemergence herbicidal evaluation; type: in vivo, Ambrosia artemisifolia; conditions: postemergence
# Method in brief: as §1
# [7] = tested on: GLXMAW (Soybean, Williams); experiment: Preemergence herbicidal evaluation; type: in vivo, Glycine max, (L.) Merr. cv Williams; conditions: rated 4-5 weeks after treatment, rating scale 0-9
# Method in brief: as §2
# [8] = tested on: SETVI (Foxtail, Green); experiment: Preemergence herbicidal evaluation; type: in vivo, Setaria viridis; conditions: rated 4-5 weeks after treatment, rating scale 0-9
# Method in brief: as §2
# [9] = tested on: AMBEL (Ragweed, Common); experiment: Preemergence herbicidal evaluation; type: in vivo, Ambrosia artemisifolia; conditions: rated 4-5 weeks after treatment, rating scale 0-9
# Method in brief: as §2
# [10] = tested on: GLXMAW (Soybean, Williams); experiment: Postemergence herbicidal evaluation; type: in vivo, Glycine max, (L.) Merr. cv Williams; conditions: postemergence
# Method in brief: as §1
# [11] = tested on: IPOHE (Morningglory, Ivyleaf); experiment: Postemergence herbicidal evaluation; type: in vivo, Ipomoea hederacea; conditions: postemergence
# Method in brief: as §1
# [12] = tested on: ABUTH (Velvetleaf); experiment: Preemergence herbicidal evaluation; type: in vivo, Abutilon theophrasti; conditions: rated 4-5 weeks after treatment, rating scale 0-9
# Method in brief: as §2
# [13] = tested on: ECHCG (Barnyardgrass); experiment: Preemergence herbicidal evaluation; type: in vivo, Echinochloa crus-galli; conditions: rated 4-5 weeks after treatment, rating scale 0-9
# Method in brief: as §2
structure (smiles),measurement,setting,value
Cn1c(C(F)(F)F)cc(=O)n(-c2cc(N=C3SCC(=O)N3Cc3ccccc3Cl)c(Cl)cc2F)c1=O [Compound 143],herbicidal rating ZEAMX,[1]; rate 0.0156 kg/ha,4.0
same,herbicidal rating ZEAMX,[1]; rate 0.0313 kg/ha,4.0
same,herbicidal rating ZEAMX,[1]; rate 0.0625 kg/ha,4.0
same,Preemergence herbicidal rating GALAP,[2]; rate 0.0313 kg/ha,0.0
same,Preemergence herbicidal rating GALAP,[2]; rate 0.0625 kg/ha,0.0
same,Preemergence herbicidal rating GALAP,[2]; rate 0.1250 kg/ha,1.0
same,Preemergence herbicidal rating GALAP,[2]; rate 0.2500 kg/ha,0.0
same,Preemergence herbicidal rating CASOB,[3]; rate 0.0313 kg/ha,0.0
same,Preemergence herbicidal rating CASOB,[3]; rate 0.0625 kg/ha,0.0
same,Preemergence herbicidal rating CASOB,[3]; rate 0.1250 kg/ha,0.0
same,Preemergence herbicidal rating CASOB,[3]; rate 0.2500 kg/ha,1.0
same,"herbicidal effect rating, SAGPY",[4]; 0.0313 kg/ha,0.0
same,"herbicidal effect rating, SAGPY",[4]; 0.0625 kg/ha,0.0
same,"herbicidal effect rating, SAGPY",[4]; 0.1250 kg/ha,0.0
same,"herbicidal effect rating, SAGPY",[4]; 0.2500 kg/ha,5.0
same,"herbicidal effect rating, CYPSE",[5]; 0.0313 kg/ha,0.0
same,"herbicidal effect rating, CYPSE",[5]; 0.0625 kg/ha,0.0
same,"herbicidal effect rating, CYPSE",[5]; 0.1250 kg/ha,0.0
same,"herbicidal effect rating, CYPSE",[5]; 0.2500 kg/ha,0.0
same,herbicidal rating AMBEL,[6]; rate 0.0156 kg/ha,9.0
same,herbicidal rating AMBEL,[6]; rate 0.0313 kg/ha,9.0
same,herbicidal rating AMBEL,[6]; rate 0.0625 kg/ha,9.0
same,Preemergence herbicidal rating GLXMAW,[7]; rate 0.0313 kg/ha,0.0
same,Preemergence herbicidal rating GLXMAW,[7]; rate 0.0625 kg/ha,0.0
same,Preemergence herbicidal rating GLXMAW,[7]; rate 0.1250 kg/ha,0.0
same,Preemergence herbicidal rating GLXMAW,[7]; rate 0.2500 kg/ha,1.0
same,Preemergence herbicidal rating SETVI,[8]; rate 0.0313 kg/ha,0.0
same,Preemergence herbicidal rating SETVI,[8]; rate 0.0625 kg/ha,0.0
same,Preemergence herbicidal rating SETVI,[8]; rate 0.1250 kg/ha,3.0
same,Preemergence herbicidal rating SETVI,[8]; rate 0.2500 kg/ha,3.0
same,Preemergence herbicidal rating AMBEL,[9]; rate 0.0313 kg/ha,0.0
same,Preemergence herbicidal rating AMBEL,[9]; rate 0.0625 kg/ha,0.0
same,Preemergence herbicidal rating AMBEL,[9]; rate 0.1250 kg/ha,2.0
same,Preemergence herbicidal rating AMBEL,[9]; rate 0.2500 kg/ha,3.0
same,herbicidal rating GLXMAW,[10]; rate 0.0156 kg/ha,4.0
same,herbicidal rating GLXMAW,[10]; rate 0.0313 kg/ha,4.5
same,herbicidal rating GLXMAW,[10]; rate 0.0625 kg/ha,5.0
same,herbicidal rating IPOHE,[11]; rate 0.0156 kg/ha,9.0
same,herbicidal rating IPOHE,[11]; rate 0.0313 kg/ha,9.0
same,herbicidal rating IPOHE,[11]; rate 0.0625 kg/ha,9.0
same,Preemergence herbicidal rating ABUTH,[12]; rate 0.0313 kg/ha,1.0
same,Preemergence herbicidal rating ABUTH,[12]; rate 0.0625 kg/ha,1.0
same,Preemergence herbicidal rating ABUTH,[12]; rate 0.1250 kg/ha,6.0
same,Preemergence herbicidal rating ABUTH,[12]; rate 0.2500 kg/ha,9.0
same,Preemergence herbicidal rating ECHCG,[13]; rate 0.0313 kg/ha,0.0
same,Preemergence herbicidal rating ECHCG,[13]; rate 0.0625 kg/ha,0.0
same,Preemergence herbicidal rating ECHCG,[13]; rate 0.1250 kg/ha,1.0
same,Preemergence herbicidal rating ECHCG,[13]; rate 0.2500 kg/ha,1.0
"Cn1c(C(F)(F)F)cc(=O)n(-c2cc(N=C3SCC(=O)N3Cc3cccc(C(F)(F)F)c3)c(Cl)cc2F)c1=O [Compound 142, 3-{4-Chloro-2-fluoro-5-{{3-[m-(trifluoromethyl)benzyl]-4-oxo-2-thiazolidinylidene}-amino}phenyl}-1-methyl-6-(trifluoromethyl)-2,4(1H,3H)-pyrimidinedione]",herbicidal rating ZEAMX,[1]; rate 0.0156 kg/ha,4.0
same,herbicidal rating ZEAMX,[1]; rate 0.0313 kg/ha,4.0
same,herbicidal rating ZEAMX,[1]; rate 0.0625 kg/ha,4.5
same,Preemergence herbicidal rating GALAP,[2]; rate 0.0156 kg/ha,0.0
same,Preemergence herbicidal rating GALAP,[2]; rate 0.0313 kg/ha,0.0
same,Preemergence herbicidal rating GALAP,[2]; rate 0.0625 kg/ha,0.0
same,Preemergence herbicidal rating GALAP,[2]; rate 0.1250 kg/ha,0.0
same,Preemergence herbicidal rating GALAP,[2]; rate 0.2500 kg/ha,9.0
same,Preemergence herbicidal rating CASOB,[3]; rate 0.0156 kg/ha,1.0
same,Preemergence herbicidal rating CASOB,[3]; rate 0.0313 kg/ha,0.0
same,Preemergence herbicidal rating CASOB,[3]; rate 0.0625 kg/ha,2.0
same,Preemergence herbicidal rating CASOB,[3]; rate 0.1250 kg/ha,1.0
same,Preemergence herbicidal rating CASOB,[3]; rate 0.2500 kg/ha,0.0
same,"herbicidal effect rating, SAGPY",[4]; 0.0313 kg/ha,0.0
same,"herbicidal effect rating, SAGPY",[4]; 0.0625 kg/ha,0.0
same,"herbicidal effect rating, SAGPY",[4]; 0.1250 kg/ha,0.0
same,"herbicidal effect rating, SAGPY",[4]; 0.2500 kg/ha,2.0
same,"herbicidal effect rating, CYPSE",[5]; 0.1250 kg/ha,0.0
same,"herbicidal effect rating, CYPSE",[5]; 0.2500 kg/ha,0.0
same,herbicidal rating AMBEL,[6]; rate 0.0156 kg/ha,9.0
same,herbicidal rating AMBEL,[6]; rate 0.0313 kg/ha,9.0
same,herbicidal rating AMBEL,[6]; rate 0.0625 kg/ha,9.0
same,Preemergence herbicidal rating GLXMAW,[7]; rate 0.0156 kg/ha,1.0
same,Preemergence herbicidal rating GLXMAW,[7]; rate 0.0313 kg/ha,0.0
same,Preemergence herbicidal rating GLXMAW,[7]; rate 0.0625 kg/ha,0.0
same,Preemergence herbicidal rating GLXMAW,[7]; rate 0.1250 kg/ha,0.0
same,Preemergence herbicidal rating GLXMAW,[7]; rate 0.2500 kg/ha,1.0
same,Preemergence herbicidal rating SETVI,[8]; rate 0.0156 kg/ha,0.0
same,Preemergence herbicidal rating SETVI,[8]; rate 0.0313 kg/ha,1.0
same,Preemergence herbicidal rating SETVI,[8]; rate 0.0625 kg/ha,0.0
same,Preemergence herbicidal rating SETVI,[8]; rate 0.1250 kg/ha,2.0
same,Preemergence herbicidal rating SETVI,[8]; rate 0.2500 kg/ha,7.0
same,Preemergence herbicidal rating AMBEL,[9]; rate 0.0156 kg/ha,0.0
same,Preemergence herbicidal rating AMBEL,[9]; rate 0.0313 kg/ha,0.0
same,Preemergence herbicidal rating AMBEL,[9]; rate 0.0625 kg/ha,4.0
same,Preemergence herbicidal rating AMBEL,[9]; rate 0.1250 kg/ha,2.0
same,Preemergence herbicidal rating AMBEL,[9]; rate 0.2500 kg/ha,1.0
same,herbicidal rating GLXMAW,[10]; rate 0.0156 kg/ha,5.0
same,herbicidal rating GLXMAW,[10]; rate 0.0313 kg/ha,5.0
same,herbicidal rating GLXMAW,[10]; rate 0.0625 kg/ha,5.5
same,herbicidal rating IPOHE,[11]; rate 0.0156 kg/ha,7.0
same,herbicidal rating IPOHE,[11]; rate 0.0313 kg/ha,7.0
same,herbicidal rating IPOHE,[11]; rate 0.0625 kg/ha,9.0
same,Preemergence herbicidal rating ABUTH,[12]; rate 0.0156 kg/ha,0.0
same,Preemergence herbicidal rating ABUTH,[12]; rate 0.0313 kg/ha,1.0
same,Preemergence herbicidal rating ABUTH,[12]; rate 0.0625 kg/ha,1.0
same,Preemergence herbicidal rating ABUTH,[12]; rate 0.1250 kg/ha,4.0
same,Preemergence herbicidal rating ABUTH,[12]; rate 0.2500 kg/ha,9.0
same,Preemergence herbicidal rating ECHCG,[13]; rate 0.0156 kg/ha,0.0
same,Preemergence herbicidal rating ECHCG,[13]; rate 0.0313 kg/ha,0.0
same,Preemergence herbicidal rating ECHCG,[13]; rate 0.0625 kg/ha,0.0
same,Preemergence herbicidal rating ECHCG,[13]; rate 0.1250 kg/ha,0.0
same,Preemergence herbicidal rating ECHCG,[13]; rate 0.2500 kg/ha,0.0

# — US20020137929A1, “1 - (3-heterocyclylphenyl) isothiourea, -isourea, -guanidine and -amidine herbicidal agents” (Intellectual Property Department, BASF Aktiengesellschaft, priority 1998, published 2002)
